PMC11172460 (International Journal of Molecular Sciences, 2024)
Like-named read-outs stand apart in the source and are kept apart here.

Key:
[1] = rat brain homogenates, cited from earlier work; for amount hydrolyzed: within 6 h
[2] = rat liver homogenates, cited from earlier work
[3] = same tristearin carriers; cited from earlier work
[4] = rodents and humans, ranging from a few minutes to 30 min; cited from earlier work
[5] = set-up: method as in PMID 10669289; conditions: 1-octanol/water; cited from earlier work
differentiated N2a cells [6] = assay: MTT assay of H2O2-altered viability (neuroprotection); format: cell-based, mouse; conditions: 100 µM H2O2 for 24 h
Description: (§1) N2a cells were seeded on T75 flasks and grown in Dulbecco’s Modified Eagle Medium (DMEM) containing Glutamax, supplemented with 100 μg/mL streptomycin, 100 IU/mL penicillin, and 10% fetal bovine serum (FBS) in a humidified 5% CO2 atmosphere at 37 °C. After two passages by trypsinization, cells were seeded at a density of 5 × 10^3 cells/well in 12-well plates with 2 mL of DMEM or at a density of 5 × 10^2 cells/well in 96-well plates with 0.2 mL of DMEM, depending on the study (see below). For neural differentiation, N2a cells were allowed to adhere and proliferate in wells for 4 days; then, after washing once with serum-free DMEM, differentiating medium composed of DMEM containing 1% HS and 20 μM all-trans-retinoic acid (atRA) was added in both the seeding conditions, up to 6 days of differentiation, after which the cells were used for the experiments.
The MTT assay was also carried out to determine the neuroprotective effect of Fer-Ger on H2O2-induced cell oxidative stress in N2a neuronal cells. Briefly, N2a cells (5 × 10^2) were seeded and differentiated into 96-well plates, as reported above. Then, cells were incubated with 1 µM and 5 µM Fer-Ger dissolved in DMEM containing 0.5% HS for 1 h in a humidified 5% CO2 atmosphere at 37 °C. The experimental design therefore included cells incubated with only culture medium as a control and cells incubated for 24 h with 100 µM H2O2 as a damage-inducing agent after 1 h of preincubation in the absence or presence of 1 µM or 5 µM Fer-Ger. Then, 20 μL of MTT (5 mg/mL) was added into the 200 µL of the incubation medium. Four hours later, the medium containing MTT was aspirated and replaced by 100 µL of dimethyl sulfoxide (DMSO) solubilization agent for 1 h at 37 °C in an orbital shaker incubator. Finally, the absorbance of each well was measured at 570 nm using a microtiter plate reader (Sunrise® Microplate Reader, Tecan Trading AG, Männedorf, Switzerland).

differentiated N2a cells [7] = assay: DCFH-DA assay of intracellular ROS production; format: cell-based, mouse
Description: as §1
The potential antioxidant effect of Fer-Ger was evaluated according to the original method of Wang and Joseph. In this method, the nonpolar 2′,7′-dichlorofluorescin diacetate (DCFH-DA) enters the intact cells and is hydrolyzed by intracellular esterases to nonfluorescent DCFH carboxylate anion, which remains entrapped and becomes the high fluorescent dichlorofluorescin (DCF) after oxidation by free radicals generated by a stressor, such as H2O2. Therefore, H2O2-induced intracellular ROS production was measured in N2a cells by a florescence intensity assay following exposure to the oxidation-sensitive dye DCFH-DA. N2a cells were seeded at a density of 1 × 10^4 cells/well in a black-coated and clear bottom 96-well plate and neuron-differentiated as reported above. After 6 days, differentiating medium in N2a cells was replaced with pre-warmed phenol-red-free and serum-free DMEM containing 10 µM DCFH-DA and incubated for 30 min in the dark in a humidified 5% CO2 atmosphere at 37 °C. The 10 µM DCFH-DA loading solution was then removed, and the cells were washed twice with fresh phenol-red-free and serum-free DMEM to remove the redundant extracellular DCFH-DA probe. Subsequently, N2a cells were incubated with pre-warmed phenol-red free DMEM containing 1% FBS as an untreated control and with solutions dissolved in phenol-red free DMEM containing 1% FBS of Fer-Ger (1, 5, or 10 µM) or 100 µM ascorbic acid (AA, as an established antioxidant positive control) and incubated for 1 h in a humidified 5% CO2 atmosphere at 37 °C. After this time, 100 µM H2O2 was added in the absence or presence of 1, 5 or 10 µM Fer-Ger or 100 µM AA, and the fluorescence intensity was measured at an excitation wavelength of 485 nm and at an emission wavelength of 530 nm, monitoring the oxidation of DCFH to DCF by the intracellular ROS by running the kinetic over 75 min in a fluorescence microplate reader (VICTOR^3TM 1420 Multilabel counter, PerkinElmer, Milan, Italy). Results were represented as a percentage of intracellular ROS production (100% of control) resulting from the mean values ± SEM of sextuplicate wells over time.

For `CC(C)=CCCC(C)=CCOC(=O)CCC(C)C1CCC2C3C(O)CC4CC(O)CCC4(C)C3CCC12C` (stereo not shown) [GER-UDCA], the amount hydrolyzed [1] is listed as “about 30%” and the half-life of hydrolysis [2] is listed as “higher than 30 min”.
For `COC(=O)/C=C/c1ccc(O)c(OC)c1` [Fer-Me], the hydrolysis [1] is listed as “total absence of hydrolysis processes”, the drug loading [3] is listed as 0.72 % w/w and the “encapsulation efficiency (EE)” value [3] is listed as “about 28%”.
For `COC(=O)/C=C/c1ccc(OC(=O)/C=C/c2ccc(O)c(OC)c2)c(OC)c1` [Fer-Fer-Me], the half-life of hydrolysis [1] is given as “about 14 min”, the drug loading [3] is given as 0.49 % w/w and the “encapsulation efficiency (EE)” value [3] is given as “about 19%”.
In the case of `CC(C)=CCC/C(C)=C/CO` [Ger, geraniol], the in vivo half-lives [4] is listed as at most 30 min and the “Log P” value [5] is listed as 3.56.
In the case of `Cc1cn([C@H]2C[C@H](N=[N+]=[N-])[C@@H](COC(=O)CC[C@@H](C)[C@H]3CC[C@H]4[C@@H]5[C@@H](O)C[C@@H]6C[C@H](O)CC[C@]6(C)[C@H]5CC[C@]34C)O2)c(=O)[nH]c1=O` [UDCA-AZT], the half-life of hydrolysis [1] is given as “about 7 min”, the drug loading [3] is given as 0.57 % w/w and the “encapsulation efficiency (EE)” value [3] is given as “about 26%”. The hydrolysis rate ([2]; ref our previous results) was “the same hydrolysis rate as Fer-Ger”.
In the case of `OO` [H2O2, hydrogen peroxide, reference compound], the “reduction of cell viability compared to untreated cells” value (differentiated N2a cells [6]) is reported as 74% and the “effect on DCF fluorescence (ROS production)” value (differentiated N2a cells [7]; 100 µM H2O2, 75 min observation) is reported as “significantly and time-dependently increased DCF fluorescence”.
For `O=C1O[C@H]([C@@H](O)CO)C(O)=C1O` [ascorbic acid], the “effect on basal ROS production” value (differentiated N2a cells [7]; 100 µM ascorbic acid alone) was “without by itself modifying basal ROS production” and the “effect on H2O2-induced ROS production” value (differentiated N2a cells [7]; 100 µM ascorbic acid with 100 µM H2O2) was “completely prevented the H2O2-induced ROS production”.
In the case of `COc1cc(C=CC(=O)Oc2ccc(C=CC(=O)O)cc2OC)ccc1O` [Fer-Fer], the amount hydrolyzed [1] is listed as “about 50%”.
For `COc1cc(/C=C/C(=O)O)ccc1O` [Fer, ferulic acid], the in vivo half-lives [4] is given as at most 30 min, the drug loading [3] is given as 0.38 % w/w and the “encapsulation efficiency (EE)” value [3] is given as “about 14%”.
